Earlier results, collected in paper PMC9851200, “Multiparameter phenotypic screening for endogenous TFEB and TFE3 translocation identifies novel chemical series modulating lysosome function” (Autophagy, 2022).

Assays:
Parameters in all cases: method as in original PKIS2 published data
[1] = target: kinases (KINOMEscan panel) (Homo sapiens, UniProt O96013); details: PAK4; Published KINOMEscan; ref original PKIS2 published data; cited from earlier work
[2] = target: kinases (KINOMEscan panel) (Homo sapiens, UniProt P09769); details: FGR; Published KINOMEscan; ref original PKIS2 published data; cited from earlier work
Sequence of kinases (KINOMEscan panel) (Homo sapiens, UniProt P09769) (P09769 whole entry): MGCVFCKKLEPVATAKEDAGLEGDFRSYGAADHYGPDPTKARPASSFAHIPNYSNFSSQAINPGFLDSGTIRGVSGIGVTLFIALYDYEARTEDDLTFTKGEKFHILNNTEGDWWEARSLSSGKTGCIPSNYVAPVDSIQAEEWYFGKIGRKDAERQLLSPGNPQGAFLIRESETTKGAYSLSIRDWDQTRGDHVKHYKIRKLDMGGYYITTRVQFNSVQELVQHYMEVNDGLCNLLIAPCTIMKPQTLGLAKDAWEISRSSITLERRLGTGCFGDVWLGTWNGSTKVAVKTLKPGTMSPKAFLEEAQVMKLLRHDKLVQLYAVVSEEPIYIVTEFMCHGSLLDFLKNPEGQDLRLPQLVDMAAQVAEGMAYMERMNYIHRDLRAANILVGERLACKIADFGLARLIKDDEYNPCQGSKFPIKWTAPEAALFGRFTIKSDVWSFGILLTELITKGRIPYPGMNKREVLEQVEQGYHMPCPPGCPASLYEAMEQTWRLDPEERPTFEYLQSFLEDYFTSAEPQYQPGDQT

[3] = target: kinases (KINOMEscan panel) (Homo sapiens, UniProt P35590); details: TIE1; Published KINOMEscan; ref original PKIS2 published data; cited from earlier work
Sequence of kinases (KINOMEscan panel) (Homo sapiens, UniProt P35590) (P35590 22-1138): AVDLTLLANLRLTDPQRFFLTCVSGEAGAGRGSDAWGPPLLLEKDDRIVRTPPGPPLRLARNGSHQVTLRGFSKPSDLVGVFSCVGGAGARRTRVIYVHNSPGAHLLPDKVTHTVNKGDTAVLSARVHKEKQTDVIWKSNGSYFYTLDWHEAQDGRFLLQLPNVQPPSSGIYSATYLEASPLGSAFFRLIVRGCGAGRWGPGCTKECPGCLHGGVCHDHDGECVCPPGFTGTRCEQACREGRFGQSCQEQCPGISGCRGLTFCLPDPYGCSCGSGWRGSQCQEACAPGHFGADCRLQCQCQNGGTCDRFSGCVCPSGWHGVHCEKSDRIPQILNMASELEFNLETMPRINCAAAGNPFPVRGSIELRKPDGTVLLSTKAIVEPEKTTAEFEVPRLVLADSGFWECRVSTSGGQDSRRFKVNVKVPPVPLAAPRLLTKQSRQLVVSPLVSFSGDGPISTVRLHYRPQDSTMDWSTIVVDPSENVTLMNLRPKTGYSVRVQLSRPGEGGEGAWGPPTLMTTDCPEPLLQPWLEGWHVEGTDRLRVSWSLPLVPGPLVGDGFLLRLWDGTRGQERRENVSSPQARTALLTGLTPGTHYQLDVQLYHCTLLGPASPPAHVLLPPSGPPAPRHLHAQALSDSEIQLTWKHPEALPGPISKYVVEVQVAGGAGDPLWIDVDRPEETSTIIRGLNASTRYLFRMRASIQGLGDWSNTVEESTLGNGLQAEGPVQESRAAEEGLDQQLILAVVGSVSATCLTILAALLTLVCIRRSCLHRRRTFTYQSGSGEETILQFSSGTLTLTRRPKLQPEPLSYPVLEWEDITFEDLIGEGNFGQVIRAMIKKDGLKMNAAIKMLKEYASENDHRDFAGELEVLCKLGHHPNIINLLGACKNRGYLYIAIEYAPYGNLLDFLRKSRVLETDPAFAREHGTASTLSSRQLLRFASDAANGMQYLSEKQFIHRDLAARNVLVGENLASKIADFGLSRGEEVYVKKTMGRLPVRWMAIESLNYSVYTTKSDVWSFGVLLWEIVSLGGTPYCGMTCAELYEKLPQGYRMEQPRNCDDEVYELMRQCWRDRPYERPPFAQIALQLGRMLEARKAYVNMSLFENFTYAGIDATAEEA

[4] = target: T1, kinases (KINOMEscan panel) (Homo sapiens, UniProt Q8IVH8); details: Published KINOMEscan; ref original PKIS2 published data; cited from earlier work
T1 sequence (Q8IVH8 1-894): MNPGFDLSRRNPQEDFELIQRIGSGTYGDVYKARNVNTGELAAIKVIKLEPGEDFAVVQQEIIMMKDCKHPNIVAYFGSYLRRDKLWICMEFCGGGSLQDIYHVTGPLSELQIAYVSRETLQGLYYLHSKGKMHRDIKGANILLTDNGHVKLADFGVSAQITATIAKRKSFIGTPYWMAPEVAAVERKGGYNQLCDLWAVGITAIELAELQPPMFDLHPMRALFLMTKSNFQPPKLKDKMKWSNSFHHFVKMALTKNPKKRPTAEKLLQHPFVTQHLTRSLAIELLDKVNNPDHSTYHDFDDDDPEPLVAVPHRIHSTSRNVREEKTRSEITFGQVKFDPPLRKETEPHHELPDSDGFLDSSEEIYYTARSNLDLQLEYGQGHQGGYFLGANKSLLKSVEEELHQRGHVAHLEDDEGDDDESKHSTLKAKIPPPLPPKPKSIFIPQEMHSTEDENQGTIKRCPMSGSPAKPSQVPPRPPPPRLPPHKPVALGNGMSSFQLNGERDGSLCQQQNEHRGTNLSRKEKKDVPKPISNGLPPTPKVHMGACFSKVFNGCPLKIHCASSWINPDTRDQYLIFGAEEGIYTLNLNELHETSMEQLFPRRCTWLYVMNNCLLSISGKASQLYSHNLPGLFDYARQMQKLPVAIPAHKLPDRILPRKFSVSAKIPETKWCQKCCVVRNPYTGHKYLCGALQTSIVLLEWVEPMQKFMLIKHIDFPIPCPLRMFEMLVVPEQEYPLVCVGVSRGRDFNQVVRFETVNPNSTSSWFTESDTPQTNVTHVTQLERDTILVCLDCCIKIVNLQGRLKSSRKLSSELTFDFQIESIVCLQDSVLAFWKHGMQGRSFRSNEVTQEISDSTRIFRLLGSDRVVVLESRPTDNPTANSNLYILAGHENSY

[5] = target: kinases (KINOMEscan panel) (Homo sapiens, UniProt Q9BVS4); details: RIOK2; Published KINOMEscan; ref original PKIS2 published data; cited from earlier work
Sequence of kinases (KINOMEscan panel) (Homo sapiens, UniProt Q9BVS4) (Q9BVS4 whole entry): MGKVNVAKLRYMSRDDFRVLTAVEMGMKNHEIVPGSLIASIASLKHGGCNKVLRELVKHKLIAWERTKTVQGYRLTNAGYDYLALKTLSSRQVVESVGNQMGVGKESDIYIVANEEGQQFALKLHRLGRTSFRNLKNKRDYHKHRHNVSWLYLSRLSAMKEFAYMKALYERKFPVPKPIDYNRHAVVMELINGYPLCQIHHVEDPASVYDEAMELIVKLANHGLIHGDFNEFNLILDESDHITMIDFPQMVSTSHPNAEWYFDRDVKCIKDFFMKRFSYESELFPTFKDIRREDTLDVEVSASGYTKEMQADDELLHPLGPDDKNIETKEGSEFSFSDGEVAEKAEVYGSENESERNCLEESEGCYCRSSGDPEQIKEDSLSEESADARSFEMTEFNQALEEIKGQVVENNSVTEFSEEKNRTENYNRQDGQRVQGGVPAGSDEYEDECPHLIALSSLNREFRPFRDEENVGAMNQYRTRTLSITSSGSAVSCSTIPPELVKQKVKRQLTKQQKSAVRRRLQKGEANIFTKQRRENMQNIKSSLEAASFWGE

[6] = target: kinases (KINOMEscan panel) (Homo sapiens, UniProt Q9BYT3); details: kinase STK33; Published KINOMEscan; ref original PKIS2 published data; cited from earlier work
Sequence of kinases (KINOMEscan panel) (Homo sapiens, UniProt Q9BYT3) (Q9BYT3 whole entry): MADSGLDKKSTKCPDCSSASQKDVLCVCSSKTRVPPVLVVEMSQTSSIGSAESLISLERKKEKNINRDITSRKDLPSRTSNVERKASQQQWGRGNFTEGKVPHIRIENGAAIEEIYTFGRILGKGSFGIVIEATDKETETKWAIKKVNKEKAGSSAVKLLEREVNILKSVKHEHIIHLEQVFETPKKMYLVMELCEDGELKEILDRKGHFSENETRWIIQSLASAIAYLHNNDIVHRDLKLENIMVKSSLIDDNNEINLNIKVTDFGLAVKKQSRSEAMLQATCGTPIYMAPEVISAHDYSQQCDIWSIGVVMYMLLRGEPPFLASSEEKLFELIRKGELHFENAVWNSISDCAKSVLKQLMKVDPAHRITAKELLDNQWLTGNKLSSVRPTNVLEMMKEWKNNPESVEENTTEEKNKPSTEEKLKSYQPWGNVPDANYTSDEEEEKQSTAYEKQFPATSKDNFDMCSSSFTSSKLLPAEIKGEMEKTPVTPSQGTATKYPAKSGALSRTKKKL

[7] = target: kinases (KINOMEscan panel) (Homo sapiens, UniProt Q9HBH9); details: MKNK2; Published KINOMEscan; ref original PKIS2 published data; cited from earlier work
Sequence of kinases (KINOMEscan panel) (Homo sapiens, UniProt Q9HBH9) (Q9HBH9 whole entry): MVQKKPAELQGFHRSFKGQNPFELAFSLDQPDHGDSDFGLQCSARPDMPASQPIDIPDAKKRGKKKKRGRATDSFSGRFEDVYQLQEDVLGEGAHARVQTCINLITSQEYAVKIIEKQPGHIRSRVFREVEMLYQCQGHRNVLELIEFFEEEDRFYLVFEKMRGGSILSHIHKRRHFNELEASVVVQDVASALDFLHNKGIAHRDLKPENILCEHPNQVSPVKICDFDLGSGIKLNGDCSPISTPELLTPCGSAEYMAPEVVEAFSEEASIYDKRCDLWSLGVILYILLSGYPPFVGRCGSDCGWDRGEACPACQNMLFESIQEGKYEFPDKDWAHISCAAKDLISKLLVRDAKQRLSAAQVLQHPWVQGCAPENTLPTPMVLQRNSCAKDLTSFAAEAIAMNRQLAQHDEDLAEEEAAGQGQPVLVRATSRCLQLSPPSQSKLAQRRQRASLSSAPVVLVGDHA

[8] = target: kinases (KINOMEscan panel) (Homo sapiens, UniProt Q9HCP0); details: kinase CSNK1G1; Published KINOMEscan; ref original PKIS2 published data; cited from earlier work
Sequence of kinases (KINOMEscan panel) (Homo sapiens, UniProt Q9HCP0) (Q9HCP0 whole entry): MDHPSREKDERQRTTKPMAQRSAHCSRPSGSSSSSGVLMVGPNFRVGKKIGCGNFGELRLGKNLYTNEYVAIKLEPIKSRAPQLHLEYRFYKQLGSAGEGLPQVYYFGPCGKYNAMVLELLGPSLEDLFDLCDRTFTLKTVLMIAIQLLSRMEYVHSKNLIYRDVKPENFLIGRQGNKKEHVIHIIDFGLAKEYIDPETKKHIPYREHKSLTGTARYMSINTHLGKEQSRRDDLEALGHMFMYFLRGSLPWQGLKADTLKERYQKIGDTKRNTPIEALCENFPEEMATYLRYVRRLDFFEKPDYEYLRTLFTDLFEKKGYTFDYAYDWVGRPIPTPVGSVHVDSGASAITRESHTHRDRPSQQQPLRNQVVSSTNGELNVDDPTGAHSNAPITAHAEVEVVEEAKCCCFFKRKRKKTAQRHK

[9] = target: T2, kinases (KINOMEscan panel) (Homo sapiens, UniProt Q9UPZ9); details: CILK1; Published KINOMEscan; ref original PKIS2 published data; cited from earlier work
T2 sequence (Q9UPZ9 1-632): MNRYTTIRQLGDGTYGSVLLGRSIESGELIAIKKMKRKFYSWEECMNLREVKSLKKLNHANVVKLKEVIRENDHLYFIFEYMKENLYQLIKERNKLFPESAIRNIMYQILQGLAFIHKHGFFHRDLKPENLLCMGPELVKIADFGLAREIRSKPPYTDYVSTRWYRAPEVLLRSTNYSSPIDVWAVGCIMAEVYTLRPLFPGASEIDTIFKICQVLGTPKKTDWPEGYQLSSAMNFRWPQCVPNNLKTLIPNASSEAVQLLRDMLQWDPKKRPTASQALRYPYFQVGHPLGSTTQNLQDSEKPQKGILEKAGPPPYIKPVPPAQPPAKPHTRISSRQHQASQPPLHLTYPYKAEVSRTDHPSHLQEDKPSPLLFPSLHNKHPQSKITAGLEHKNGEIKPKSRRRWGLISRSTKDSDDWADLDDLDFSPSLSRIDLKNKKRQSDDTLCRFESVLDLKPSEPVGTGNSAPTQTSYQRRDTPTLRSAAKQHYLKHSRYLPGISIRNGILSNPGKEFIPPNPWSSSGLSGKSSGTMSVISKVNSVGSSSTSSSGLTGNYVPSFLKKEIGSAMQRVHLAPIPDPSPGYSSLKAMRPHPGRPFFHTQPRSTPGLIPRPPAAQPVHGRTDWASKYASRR

Sequence of kinases (KINOMEscan panel) (Homo sapiens, UniProt O96013) (O96013 whole entry): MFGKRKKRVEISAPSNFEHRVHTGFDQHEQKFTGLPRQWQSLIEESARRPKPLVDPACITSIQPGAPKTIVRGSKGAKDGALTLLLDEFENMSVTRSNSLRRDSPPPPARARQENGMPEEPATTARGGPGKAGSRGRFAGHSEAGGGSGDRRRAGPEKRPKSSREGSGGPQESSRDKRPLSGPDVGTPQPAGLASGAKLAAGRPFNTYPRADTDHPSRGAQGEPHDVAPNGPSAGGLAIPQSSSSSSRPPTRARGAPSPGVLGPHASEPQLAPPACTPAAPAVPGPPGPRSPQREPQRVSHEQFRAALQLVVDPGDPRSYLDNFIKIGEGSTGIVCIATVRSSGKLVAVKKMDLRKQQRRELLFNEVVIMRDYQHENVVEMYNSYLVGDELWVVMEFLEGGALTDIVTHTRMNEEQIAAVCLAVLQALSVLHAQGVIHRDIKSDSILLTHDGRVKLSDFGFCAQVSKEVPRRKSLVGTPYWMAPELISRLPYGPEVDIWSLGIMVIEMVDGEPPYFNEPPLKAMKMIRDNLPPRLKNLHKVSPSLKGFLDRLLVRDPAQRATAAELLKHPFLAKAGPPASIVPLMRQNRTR

Structure (SMILES): Cc1cccc(-c2nc(Nc3ccncc3)c3ccccc3n2)n1 [NK215]
- KINOMEscan PAK4 [1]: 0
- KINOMEscan FGR [2]: 31
- KINOMEscan TIE1 [3]: 20
- KINOMEscan MAP4K3 [4]: 0
- KINOMEscan RIOK2 [5]: 0
- KINOMEscan STK33 [6]: 2
- KINOMEscan MKNK2 [7]: 0
- KINOMEscan CSNK1G1 [8]: 0
- KINOMEscan CILK1 [9]: 0
